{"source": "patent US20200179331A1", "about": "“Peptide-Artesunate Conjugates as Targeted Anti-Cancer Agents” (priority 2017, published 2020)", "key": {"[1]": {"conditions": "reference [50]; cell line not given; read-out: IC50, anticancer ability of commonly used anticancer drugs; cited from earlier work"}, "[2]": {"test": "Dichlorofluorescein assay (reactive oxygen species formation with Fe2+)", "conditions": "for reactive oxygen species formation, DCF fluorescence: 20 μM, Fe2+ 5-25 μM, 10 μM DCFH-DA, 30 min", "experimental": "The assay was carried out following a reported procedure either in presence of hydrogen peroxide, Artesunate with and without Fe2+, and ART-HER2 conjugate with and without Fe2+[43]. In this assay non-fluorescent DCFH-DA (2′, 7′-Dichlorofluorescin diacetate treated with methanol and NaOH, as described in reference 43) is converted to a fluorescent derivative, known as dichlorofluorescein (DCF), in presence of an oxidizing agent (e.g. reactive oxygen species). By quantifying the concentration of fluorescent DCF, the concentration of oxidizing agent can be determined.\nFormation of free radical species from the reaction of Artesunate with […] was additionally measured by dichlorofluorescein assays. Oxidation of 2′, 7′-Dichlorofluorescin diacetate (DCFH-DA) by reactive oxygen species generates dichlorofluorescein, which is fluorescent (˜520 nm)."}, "[3]": {"test": "MTT assay, Caco-2 cells (HER2-positive)", "experimental": "(§1) CCD-18 cells were maintained in Dulbecco's minimal essential medium (DMEM, ATCC) supplemented with 10% fetal bovine serum (FBS, ATCC), 100 U/ml penicillin G, and 100 μg/ml streptomycin at 37° C. in a humid atmosphere of 5% CO2 atmosphere. Caco-2 cells were maintained in Dulbecco's minimal essential medium (DMEM, ATCC) supplemented with 20% fetal bovine serum (FBS,ATCC), 100 U/ml penicillin G, and 100 μg/ml streptomycin at 37° C. in a humid atmosphere of 5% CO2 atmosphere; culture medium was replaced with a fresh medium every 2-3 days. All experiments were performed with actively growing cells in logarithmic growth phase.\n(§2) The assay was carried out following a reported procedure. In brief, approximately 1,000 to 5,000 cells were plated per well in 96-well plate. The plates were incubated at 37° C. for 48 or 72 hours in a humidified, 5% CO2 atmosphere. Cells were incubated either with Artesunate or with ART-HER2 conjugate at various concentrations. To measure mitochondrial activity, a metric for cell viability, 15 μL of [3-{4, 5-dimethylthiazol-2-yl)-2, 5-diphenyltetrazolium bromide (MTT) was added to each well and incubated at 37° C. for 4 hours in a humidified, 5% CO2 atmosphere. After incubation, 100 μl of the solubilization solution/stop mix was added to each well. The blue formazan product formed by reduction of MTT by mitochondrial dehydrogenase in viable cells was then measured by absorbance at 570 nm.\n(§3) The cytotoxicity of Artesunate was then investigated with two human colon cell lines, a normal colon cell line CCD-18 and a cancerous colon cell line Caco-2, using the well-established MTT assay. […] Dose-dependent assays were performed in 96-well format and IC50 values were determined by plotting the cell viability against Artesunate concentration (FIG. 11 and FIG. 12)."}, "[4]": {"test": "MTT assay, CCD-18 cells (HER2-negative normal colon)", "conditions": "human, CCD-18 cells (normal colon, HER2-negative)", "experimental": "as §1\nThe assay was carried out following a reported procedure. In brief, approximately 1,000 to 5,000 cells were plated per well in 96-well plate. The plates were incubated at 37° C. for 48 or 72 hours in a humidified, 5% CO2 atmosphere. […] The blue formazan product formed by reduction of MTT by mitochondrial dehydrogenase in viable cells was then measured by absorbance at 570 nm.\nas §3"}, "[5]": {"test": "Deoxyribose degradation assay (free radical formation with Fe2+)", "conditions": "200 μM, Fe2+ 5-25 μM, 10 minutes", "experimental": "This assay quantifies the formation of hydroxyl radicals or peroxyl radicals. The assay was carried out following a reported procedure. Briefly, 500 μL reaction volumes containing 10 mM 2-deoxyribose, 100 μM ascorbic acid, and various concentrations of Fe2+ were prepared. Degradation of 2-deoxyribose was initiated either by addition of 200 μM of hydrogen peroxide or 200 μM of Artesunate. The reaction was allowed to run for 10 minutes and then stopped by the addition of 500 μL of 10% (w/v) trichloroacetic acid (TCA) followed by 0.5 mL 1% 2-thiobarbituric acid (TBA). After heating at 80° C. for 15 minutes, the absorbance at 532 nm was measured.\nTo measure the concentration of free radical species generated by Artesunate reacting with Fe^2+, 2-deoxyribose degradation assays were formed (FIG. 6). Degradation of 2-deoxyribose by action of hydrogen peroxide is shown as a positive control and 2-deoxyribose alone is shown as a negative control (FIG. 6)."}, "HCT116 cells": {"tested_on": "HCT116 cells", "test": "Sulforhodamine B (SRB) colorimetric assay, HCT116 proliferation", "type": "cell-based", "conditions": "Homo sapiens, HCT-116, 96-well format, read-out: IC50, inhibition of the proliferation of HCT116 cells", "experimental": "Mouse B16-F10 melanoma cancer cells and human HCT116 colon cancer cells were grown in culture respectively in DMEM medium or McCoy's 5 A medium supplemented with 10% fetal bovine serum and 5% antibiotic in a 5% CO2 atmosphere at 37° C. Cultures were divided 1:2 every 48 h to an approximate cell density of 1.2 million cells per ml and used for experiments after 24 hours of growth in culture."}, "Caco-2 cells": {"tested_on": "Caco-2 cells", "test": "MTT assay, Caco-2 cells (HER2-positive)", "experimental": "as §1, §2, §3"}}, "note": "Read-outs that look alike come from different tables or passages of the source. Residues, ends and D or L forms follow the SMILES beside them. *: point of attachment. X1 = C[C@H]1[C@H](OC(=O)CCC(=O)*)O[C@@H]2O[C@@]3(C)CC[C@H]4[C@H](C)CC[C@@H]1[C@@]24OO3", "data": [{"smiles": "O=c1[nH]cc(F)c(=O)[nH]1", "note": "[5-FU, 5-fluorouracil]", "values": [{"measurement": "IC50", "setting": "[1]", "value": "~15", "unit": "µM"}]}, {"smiles": "CC(C)C[C@H](NC(=O)[C@H](CO)NC(=O)[C@H](Cc1ccc(O)cc1)NC(=O)[C@H](CS)NC(=O)[C@H](CS)NC(=O)[C@H](CCCCN)NC(=O)CNC(=O)[C@H](CO)NC(=O)CNC(=O)CCC(=O)O[C@@H]1O[C@@H]2O[C@@]3(C)CC[C@H]4[C@H](C)CC[C@@H]([C@H]1C)[C@@]24OO3)C(N)=O", "note": "[ART-HER2 conjugate] (X1-GSGKCCYSL-NH2)", "values": [{"measurement": "free radical species formation in presence of Fe2+ (in words)", "setting": "[2]; 2-deoxyribose degradation and dichlorofluorescein assays, increasing Fe2+", "value": "increases in presence of increasing levels of Fe^+"}, {"measurement": "IC50", "setting": "[3]", "value": "~15", "unit": "µM"}]}, {"smiles": "C[C@H]1[C@H](OC(=O)CCC(=O)O)O[C@@H]2O[C@@]3(C)CC[C@H]4[C@H](C)CC[C@@H]1[C@@]24OO3", "note": "[Artesunate]", "values": [{"measurement": "IC50", "setting": "[4]", "value": "~5.6", "unit": "µM"}, {"measurement": "reactive oxygen species formation, DCF fluorescence", "setting": "[2]", "value": "Fe^2+-dependent activation of dichlorofluorescein fluorescence"}, {"measurement": "free radical generation, 2-deoxyribose degradation (absorbance 532 nm)", "setting": "[5]", "value": "reacts with Fe^2+ to generate free radical species that are sufficient to degrade 2-deoxyribose"}, {"measurement": "IC50", "setting": "HCT116 cells", "value": "~0.63", "unit": "µM"}, {"measurement": "fold higher toxicity against Caco-2 cells compared to CCD-18 cells", "setting": "Caco-2 cells; Caco-2", "value": "~5.7", "unit": "fold"}, {"measurement": "IC50", "setting": "Caco-2 cells; Homo sapiens, Caco-2, read-out: IC50, cytotoxicity against Caco-2 cells", "value": "~0.97", "unit": "µM"}]}, {"smiles": "OO", "note": "[H2O2, hydrogen peroxide]", "values": [{"measurement": "reactive oxygen species formation, DCF fluorescence", "setting": "[2]", "value": "Fe^2+-dependent activation of dichlorofluorescein fluorescence"}]}, {"smiles": "N.N.O=C([O-])C1(C(=O)[O-])CCC1.[Pt+2]", "note": "[carboplatin]", "values": [{"measurement": "IC50", "setting": "[1]", "value": "~12", "unit": "µM"}]}]}
